Consider 1 compound from patent US20230255970A1, “COMPOSITIONS AND METHODS FOR TREATING PROLIFERATIVE DISEASES” (The Broad Institute, Inc., priority 2020, published 2023).

In series [1] the test system is STS-109 human UPS cells. The series can be described thus: Proliferation assay, STS-109 cells. It is filed as cell-based. To be noted: 10 μM daily. The source says: (§1) YAP1 cell culture and treatments: Eisinger lab: Murine KP230 cells, a Yap1-dependent cancer cell line, were derived from a tumor from the KP mouse model (Kras^G12/D; Trp53^f/fl), as described in Eisinger-Mathason, T. S. K. et al., Proc. Natl. Acad. Sci. U.S.A 112 (2015): E3402-11, which is hereby incorporated by reference in its entirety. STS-109 UPS cells were derived from a human UPS tumor and validated by Rebecca Gladdy, MD (Sinai Health System, Toronto, Ontario, Canada). TC32 cells were a gift from Patrick Grohar, MD, PhD (Children's Hospital of Philadelphia). HT-1080, HCT-116, and HEK293T cells were purchased from ATCC. KP230, HT-1080, and HEK-293T cells were grown in DMEM with 10% FBS, 1% L-glutamine, and 1% penicillin/streptomycin (P/S). STS-109 cells were cultured in DMEM with 20% FBS, 1% L-glutamine, and 1% P/S. TC32 cells were grown in RPMI with 10% FBS, 1% L-glutamine, and 1% P/S. HCT-116 cells were cultured in McCoy's 5A medium with 10% FBS and 1% P/S. All cells were confirmed to be negative for mycoplasma contamination and were maintained in an incubator at 37C with 5% CO2. […]
(§2) NB4A treatment: Cells were treated with 10 μM of each inhibitor or an equivalent volume of DMSO every 24 hours for 3-8 days, and counted with a hemocytometer with trypan blue exclusion daily (KP230, HT-1080, TC32, HCT-116), or every 2 days (STS-109).

Series [2] has as its system HCT-116 colon cancer cells. In words: Proliferation assay, HCT-116 cells. It is filed as cell-based. To be noted: 10 μM daily for 72 hours.
From the text: as §1, §2

Series [3] deals with KP230, TC32, STS-109, HT-1080, HCT-116 cells. In words: Trypan blue staining toxicity in the proliferation assay cell lines. It is filed as cell-based. To be noted: all tested cell lines. Here is the method: as §2
The test system of series [4] is STK3/MST2 overexpression. The series can be described thus: Cell Painting morphological profile matching to STK3/MST2 overexpression. It is filed as cell-based, human. The source says: To profile each exogenously expressed gene (or allele therein), the previously developed image-based profiling assay, called Cell Painting was used (see Bray et al., Nat. Protoc. 2016 September; 11(9): 1757-1774). […] In five replicates in 384-well plate format, U2OS cells (human bone osteosarcoma cells), chosen for their flat morphology and previous validation in the assay, were infected with an arrayed ‘reference’ expression library of 323 open reading frame (ORF) constructs of partially characterized functions, a subset of which have been previously described. […]
Using the morphological signature found for YAP1 and TAZ, data mining was performed seeking compounds that effected the same (or opposite) morphology by computationally matching the morphological signature to a public database of small molecule signatures (see Caicedo et al., Nat. Meth. 2017 September; 14(9), 849-63, doi:10.1038/nMeth.4397, incorporated herein by reference). Specifically, the intersection of features in the two datasets was determined, resulting in 605 features (1399 features in the genetic screen, without any feature selection; and 729 features in the compound screen, obtained using the findCorrelation function with a threshold of 0.90 on the original 1,783 dimensional feature set). […]

Consider `c1ccc(CNc2ncnc3ccccc23)cc1` [BRD-K43796186, N-benzylquinazolin-4-amine], for which the proliferation result in series [1] and in series [2] was “did not affect the proliferation” throughout. In addition, in series [3], the “toxicity by trypan blue staining” value is on record as “did not exhibit overt toxicity”. For the same compound, the “Morphological profile correlation with overexpression of STK3/MST2” value in series [4] was −0.49.
